Laboratory results from the NIST ThermoML archive (doi:10.1016/j.fluid.2015.03.016).
Where “and” joins values, the source holds several entries; their conditions need not be identical. Equal entries are not always repeated. ± gives the expanded uncertainty stated by the source.

Conditions: Liquid

**Q.** Which viscosity (313.14 K, 50610 kPa, Vibrating wire viscometry) does the source give for CCCCOC(=O)CCCCC(=O)OCCCC [dibutyl hexanedioate] here?
**A.** 5.595 ± 0.093 mPa·s and 5.596 ± 0.093 mPa·s and 5.591 ± 0.093 mPa·s

**Q.** What about the viscosity (313.14 K, 50640 kPa, Vibrating wire viscometry) of the same compound?
**A.** 5.591 ± 0.093 mPa·s

**Q.** And the viscosity (313.14 K, 65090 kPa, Vibrating wire viscometry)?
**A.** 6.358 ± 0.11 mPa·s

**Q.** And the viscosity (313.14 K, 65110 kPa, Vibrating wire viscometry)?
**A.** 6.365 ± 0.11 mPa·s

**Q.** What about the viscosity (313.15 K, 5050 kPa, Vibrating wire viscometry) of the same compound?
**A.** 3.522 ± 0.065 mPa·s and 3.516 ± 0.067 mPa·s

**Q.** And the viscosity (313.15 K, 5310 kPa, Vibrating wire viscometry)?
**A.** 3.531 ± 0.077 mPa·s

**Q.** And the viscosity (313.15 K, 5320 kPa, Vibrating wire viscometry)?
**A.** 3.531 ± 0.075 mPa·s

**Q.** And the viscosity (313.15 K, 5340 kPa, Vibrating wire viscometry)?
**A.** 3.529 ± 0.071 mPa·s

**Q.** What about the viscosity (313.15 K, 5350 kPa, Vibrating wire viscometry) of the same compound?
**A.** 3.534 ± 0.071 mPa·s

**Q.** And the viscosity (313.15 K, 5370 kPa, Vibrating wire viscometry)?
**A.** 3.531 ± 0.067 mPa·s

**Q.** And the viscosity (313.15 K, 5380 kPa, Vibrating wire viscometry)?
**A.** 3.532 ± 0.066 mPa·s

**Q.** What about the viscosity (313.15 K, 7570 kPa, Vibrating wire viscometry) of the same compound?
**A.** 3.59 ± 0.06 mPa·s

**Q.** What about the viscosity (313.15 K, 7580 kPa, Vibrating wire viscometry) of the same compound?
**A.** 3.595 ± 0.06 mPa·s

**Q.** What about the viscosity (313.15 K, 7610 kPa, Vibrating wire viscometry) of the same compound?
**A.** 3.598 ± 0.06 mPa·s

**Q.** And the viscosity (313.15 K, 10450 kPa, Vibrating wire viscometry)?
**A.** 3.717 ± 0.062 mPa·s

**Q.** What about the viscosity (313.15 K, 10470 kPa, Vibrating wire viscometry) of the same compound?
**A.** 3.712 ± 0.062 mPa·s

**Q.** What about the viscosity (313.15 K, 10500 kPa, Vibrating wire viscometry) of the same compound?
**A.** 3.714 ± 0.062 mPa·s

**Q.** And the viscosity (313.15 K, 15160 kPa, Vibrating wire viscometry)?
**A.** 3.887 ± 0.065 mPa·s and 3.889 ± 0.065 mPa·s

**Q.** And the viscosity (313.15 K, 15180 kPa, Vibrating wire viscometry)?
**A.** 3.891 ± 0.065 mPa·s

**Q.** What about the viscosity (313.15 K, 20420 kPa, Vibrating wire viscometry) of the same compound?
**A.** 4.122 ± 0.069 mPa·s

**Q.** What about the viscosity (313.15 K, 30150 kPa, Vibrating wire viscometry) of the same compound?
**A.** 4.56 ± 0.076 mPa·s

**Q.** And the viscosity (313.15 K, 30200 kPa, Vibrating wire viscometry)?
**A.** 4.555 ± 0.076 mPa·s

**Q.** And the viscosity (323.11 K, 101.33 kPa, Capillary tube (Ostwald / Ubbelohde) method)?
**A.** 2.704 ± 0.084 mPa·s

**Q.** And the viscosity (323.14 K, 1140 kPa, Vibrating wire viscometry)?
**A.** 2.727 ± 0.045 mPa·s and 2.723 ± 0.045 mPa·s

**Q.** What about the viscosity (323.14 K, 5040 kPa, Vibrating wire viscometry) of the same compound?
**A.** 2.856 ± 0.048 mPa·s

**Q.** And the viscosity (323.14 K, 10170 kPa, Vibrating wire viscometry)?
**A.** 3.018 ± 0.05 mPa·s

**Q.** And the viscosity (323.14 K, 30230 kPa, Vibrating wire viscometry)?
**A.** 3.694 ± 0.061 mPa·s and 3.693 ± 0.061 mPa·s

**Q.** What about the viscosity (323.14 K, 39990 kPa, Vibrating wire viscometry) of the same compound?
**A.** 4.08 ± 0.068 mPa·s

**Q.** And the viscosity (323.14 K, 40050 kPa, Vibrating wire viscometry)?
**A.** 4.079 ± 0.068 mPa·s

**Q.** What about the viscosity (323.15 K, 1130 kPa, Vibrating wire viscometry) of the same compound?
**A.** 2.728 ± 0.045 mPa·s and 2.722 ± 0.045 mPa·s

**Q.** What about the viscosity (323.15 K, 2630 kPa, Vibrating wire viscometry) of the same compound?
**A.** 2.775 ± 0.046 mPa·s

**Q.** And the viscosity (323.15 K, 2640 kPa, Vibrating wire viscometry)?
**A.** 2.778 ± 0.046 mPa·s

**Q.** And the viscosity (323.15 K, 2650 kPa, Vibrating wire viscometry)?
**A.** 2.776 ± 0.046 mPa·s and 2.775 ± 0.046 mPa·s

**Q.** And the viscosity (323.15 K, 5040 kPa, Vibrating wire viscometry)?
**A.** 2.856 ± 0.048 mPa·s

**Q.** And the viscosity (323.15 K, 5070 kPa, Vibrating wire viscometry)?
**A.** 2.86 ± 0.048 mPa·s

**Q.** What about the viscosity (323.15 K, 5100 kPa, Vibrating wire viscometry) of the same compound?
**A.** 2.863 ± 0.048 mPa·s

**Q.** And the viscosity (323.15 K, 5170 kPa, Vibrating wire viscometry)?
**A.** 2.846 ± 0.048 mPa·s

**Q.** What about the viscosity (323.15 K, 5180 kPa, Vibrating wire viscometry) of the same compound?
**A.** 2.841 ± 0.048 mPa·s

**Q.** What about the viscosity (323.15 K, 5190 kPa, Vibrating wire viscometry) of the same compound?
**A.** 2.843 ± 0.048 mPa·s

**Q.** What about the viscosity (323.15 K, 7740 kPa, Vibrating wire viscometry) of the same compound?
**A.** 2.926 ± 0.049 mPa·s and 2.931 ± 0.049 mPa·s

**Q.** What about the viscosity (323.15 K, 7750 kPa, Vibrating wire viscometry) of the same compound?
**A.** 2.924 ± 0.049 mPa·s

**Q.** And the viscosity (323.15 K, 7760 kPa, Vibrating wire viscometry)?
**A.** 2.926 ± 0.049 mPa·s and 2.931 ± 0.049 mPa·s

**Q.** And the viscosity (323.15 K, 10130 kPa, Vibrating wire viscometry)?
**A.** 3.018 ± 0.05 mPa·s

**Q.** And the viscosity (323.15 K, 10140 kPa, Vibrating wire viscometry)?
**A.** 3.02 ± 0.05 mPa·s

**Q.** What about the viscosity (323.15 K, 10150 kPa, Vibrating wire viscometry) of the same compound?
**A.** 3.02 ± 0.05 mPa·s and 3.016 ± 0.05 mPa·s

**Q.** What about the viscosity (323.15 K, 15220 kPa, Vibrating wire viscometry) of the same compound?
**A.** 3.172 ± 0.053 mPa·s and 3.173 ± 0.053 mPa·s and 3.174 ± 0.053 mPa·s

**Q.** What about the viscosity (323.15 K, 15230 kPa, Vibrating wire viscometry) of the same compound?
**A.** 3.175 ± 0.053 mPa·s and 3.171 ± 0.053 mPa·s

**Q.** What about the viscosity (323.15 K, 20200 kPa, Vibrating wire viscometry) of the same compound?
**A.** 3.331 ± 0.056 mPa·s

**Q.** And the viscosity (323.15 K, 20230 kPa, Vibrating wire viscometry)?
**A.** 3.327 ± 0.055 mPa·s and 3.335 ± 0.056 mPa·s

**Q.** And the viscosity (323.15 K, 20250 kPa, Vibrating wire viscometry)?
**A.** 3.33 ± 0.056 mPa·s

**Q.** What about the viscosity (323.15 K, 20270 kPa, Vibrating wire viscometry) of the same compound?
**A.** 3.334 ± 0.056 mPa·s

**Q.** And the viscosity (323.15 K, 30190 kPa, Vibrating wire viscometry)?
**A.** 3.693 ± 0.061 mPa·s

**Q.** What about the viscosity (323.15 K, 30220 kPa, Vibrating wire viscometry) of the same compound?
**A.** 3.689 ± 0.061 mPa·s

**Q.** What about the viscosity (323.15 K, 40130 kPa, Vibrating wire viscometry) of the same compound?
**A.** 4.073 ± 0.068 mPa·s

**Q.** What about the viscosity (323.15 K, 40140 kPa, Vibrating wire viscometry) of the same compound?
**A.** 4.077 ± 0.068 mPa·s

**Q.** And the viscosity (323.15 K, 50030 kPa, Vibrating wire viscometry)?
**A.** 4.456 ± 0.074 mPa·s

**Q.** And the viscosity (323.15 K, 50050 kPa, Vibrating wire viscometry)?
**A.** 4.45 ± 0.074 mPa·s

**Q.** And the viscosity (323.15 K, 50060 kPa, Vibrating wire viscometry)?
**A.** 4.457 ± 0.074 mPa·s

**Q.** And the viscosity (323.16 K, 5190 kPa, Vibrating wire viscometry)?
**A.** 2.849 ± 0.048 mPa·s

**Q.** What about the viscosity (323.16 K, 65110 kPa, Vibrating wire viscometry) of the same compound?
**A.** 5.126 ± 0.095 mPa·s

**Q.** What about the viscosity (323.16 K, 65190 kPa, Vibrating wire viscometry) of the same compound?
**A.** 5.123 ± 0.085 mPa·s

**Q.** And the viscosity (323.16 K, 65230 kPa, Vibrating wire viscometry)?
**A.** 5.125 ± 0.085 mPa·s

**Q.** What about the viscosity (323.16 K, 65310 kPa, Vibrating wire viscometry) of the same compound?
**A.** 5.119 ± 0.095 mPa·s

**Q.** What about the viscosity (333.03 K, 101.33 kPa, Capillary tube (Ostwald / Ubbelohde) method) of the same compound?
**A.** 2.25 ± 0.07 mPa·s

**Q.** What about the viscosity (333.15 K, 1000 kPa, Vibrating wire viscometry) of the same compound?
**A.** 2.27 ± 0.038 mPa·s

**Q.** And the viscosity (333.15 K, 1020 kPa, Vibrating wire viscometry)?
**A.** 2.27 ± 0.038 mPa·s

**Q.** What about the viscosity (333.15 K, 1170 kPa, Vibrating wire viscometry) of the same compound?
**A.** 2.269 ± 0.041 mPa·s

**Q.** What about the viscosity (333.15 K, 1200 kPa, Vibrating wire viscometry) of the same compound?
**A.** 2.268 ± 0.047 mPa·s

**Q.** What about the viscosity (333.15 K, 2530 kPa, Vibrating wire viscometry) of the same compound?
**A.** 2.296 ± 0.039 mPa·s

**Q.** And the viscosity (333.15 K, 5030 kPa, Vibrating wire viscometry)?
**A.** 2.367 ± 0.053 mPa·s

**Q.** And the viscosity (333.15 K, 5050 kPa, Vibrating wire viscometry)?
**A.** 2.362 ± 0.046 mPa·s

**Q.** And the viscosity (333.15 K, 5070 kPa, Vibrating wire viscometry)?
**A.** 2.365 ± 0.04 mPa·s
